In patent US5985937A, “Use of 2,4-distributed phenol derivatives as 5-lipoxygenase inhibitors” (priority 1994, dated 1999):

Tests used:
canine arthrosis = assay: clinical trial on canine arthrosis; format: in vivo, dog; parameters: key: +++: very good response, total recovery; ++: good response, functionability recovery; +: moderate response, improvement; -: negative response or no apparent improvement; conditions: 4 mg/kg day orally, 45 days
Experimental: After the diagnosis, each animal was treated with Bobel capsules during 45 days, with a follow up every 15 days. Blood, synovial liquid and urine samples were taken at the beginning and at the end of the treatment in order to perform the following tests: Synovial liquid analysis (cytology, cytokines 1,6,8 and TNF); LTB4; LTC4; PGE2; hematic count and leukocyte content; standard serum biochemistry; urine sediment; Rose-Wealer test; and radiology control. The methodology for clinical validation involved applying evaluating uniform parameters and classifying the results according to the following notations: (+++)=very good response, total recovery; (++)=good response, functionability recovery; (+)=moderate response, improvement; (-)=negative response or no apparent improvement.

[1] = tested on: canine seborrheic dermatitis; assay: clinical trial on canine seborrheic dermatitis; format: in vivo, dog; parameters: key: +++: very good response, total recovery; ++: good response, functionability recovery; +: moderate response, improvement; -: negative response or no apparent improvement; conditions: weekly bath 2% shampoo, 15 days
Experimental: (§1) The animals had been diagnosed to suffer from seborrheic dermatitis, and the diagnosis was confirmed by a biopsy. The treatment consisted of a weekly bath with a 2% Bobel-24 shampoo and evaluation of the treatment after 15 days. The efficiency of the treatment was analyzed evaluating the following therapeutic symptoms; removal of scabs and scales, greasiness reduction, sheborrheic odor reduction, relieve of the pruritus, and antiinflammatory effect. […] In view of the results the following conclusions were reached: […]

herpes zoster = assay: in vivo activity in patients with herpes zoster; parameters: species or system human (patients); conditions: of 21 patients; 15 mg/day intramuscular injection, a month
Description: (§2) The 2,4-disubstituted phenol derivatives of the present invention are anti-herpetic agents in vivo, since they eliminate the symptoms of patients suffering from different types of herpes simplex (genital herpes, herpes of mouth and lips, recurrent herpes), and of patients suffering from herpes zoster. There is no relapse after leaving the treatment. The products are active both intramuscularly and topically, the first via being preferred.
A total of 21 patients with clear symptoms of herpes zoster were treated with 15 mg/day of Bobel-24, via intramuscular injection, during a month. The results concerning the disappearance of the symptoms were the following: excellent in 18 cases, good in 2 cases, and regular in 1 case.

herpes simplex = assay: test for antiviral activity in vitro
Description: as §2
A total of 25 patients with symptoms of different herpes simplex (genital, buccal or reincident) were treated with 15 mg/day of Bobel-24, intramuscularly, during a month, with the following results: with the ten patients of genital herpes simplex, the results was excellent in 7 cases, good in 2 and regular in 1; of the twelve with buccal herpes simplex it was excellent in 9 cases, good in 2 and regular in 1; of the 3 with reincident herpes it was excellent in 2 of the cases and good in 1. […] The case of genital herpes which resulted "regular" was an obese and diabetic […], and although there was an improvement there was also reincidency. Independently an test for antiviral activity in vitro resulted negative.

dyspnea = assay: treatment of race horses with dyspnea; format: in vivo, horse; conditions: eleven race horses, intravenous 50 mg/day, one week
Experimental: Eleven race horses manifesting dyspnea of variable degree, accompanied of great sensibility in the movements and, in the majority of the cases respiratory anxiety, coughs and mucous-purulent nasal flux, were treated with an intravenous dose of Bobel-24 of 50 mg/day during one week.

[2] = tested on: canine seborrheic dermatitis; assay: clinical trial on canine seborrheic dermatitis; format: in vivo, dog; parameters: key: +++: very good response, clinically cured; ++: good response, marked lowering in the clinical signs; +: moderate response, improvement; -: negative response or no apparent improvement; conditions: weekly bath 2% shampoo, 15 days
Experimental: as §1

[3] = b363 Poodle 6, b364 Mongrel 14, b374 Mongrel 10, b376 Belgian shepherd 10, b382 Poodle 9, b392 Mongrel 5 years
[4] = b369 German shepherd 10, b377 Pekinese 11, b379 German shepherd 3 years

Oc1c(I)cc(I)cc1I [Bobel-24, 2,4,6-triiodophenol]
Evolution, spondolytis (canine arthrosis; Doge 3 years): +++
Evolution, broken muscle (canine arthrosis; German shepherd 2 years): +
Evolution, generalized arthrosis (canine arthrosis; German shepherd 10 years): ++
Evolution, rotular arthrosis (canine arthrosis; Mongrel 14 years): ++
Evolution, degenerative arthrosis (canine arthrosis; Poodle 11 years): +++
Evolution, broken crossed ligament (canine arthrosis; Poodle 15 years): +
Evolution, equine cauda (canine arthrosis; b309 Mastif 11 years, b317 Mongrel 13 years): +++
Evolution, arthrosis (canine arthrosis; b312 Rottwailer 1 year, b322 German shepherd 9 years): +++
Evolution, etiology allergic [1, 3]: +
Evolution, etiology leishmania [1, 4]: +
cases with excellent result, herpes zoster (herpes zoster): 18 cases
cases with good result, herpes zoster (herpes zoster): 2 cases
cases with regular result, herpes zoster (herpes zoster): 1 cases
antiviral activity in vitro (herpes simplex): negative
horses suffering relapse (dyspnea): None of the horses suffered relapse
improvement (dyspnea): The improvement was quite high
time to disappearance of all the symptoms (dyspnea): ≤ 9 days
time to reincorporation to training, without any sequel (dyspnea): 21 days
Evolution, etiology allergic [2, 3]: ++
Evolution, etiology leishmania [2, 4]: ++
